What was measured:
myeloperoxidase [1] = target: T1, myeloperoxidase (Homo sapiens, UniProt P05164); experiment: MPO Peroxidation Assay (Amplex Red Assay); format: biochemical; details: potency range class, read-out: Amplex Red Assay IC50 value
T1 sequence (P05164 49-745): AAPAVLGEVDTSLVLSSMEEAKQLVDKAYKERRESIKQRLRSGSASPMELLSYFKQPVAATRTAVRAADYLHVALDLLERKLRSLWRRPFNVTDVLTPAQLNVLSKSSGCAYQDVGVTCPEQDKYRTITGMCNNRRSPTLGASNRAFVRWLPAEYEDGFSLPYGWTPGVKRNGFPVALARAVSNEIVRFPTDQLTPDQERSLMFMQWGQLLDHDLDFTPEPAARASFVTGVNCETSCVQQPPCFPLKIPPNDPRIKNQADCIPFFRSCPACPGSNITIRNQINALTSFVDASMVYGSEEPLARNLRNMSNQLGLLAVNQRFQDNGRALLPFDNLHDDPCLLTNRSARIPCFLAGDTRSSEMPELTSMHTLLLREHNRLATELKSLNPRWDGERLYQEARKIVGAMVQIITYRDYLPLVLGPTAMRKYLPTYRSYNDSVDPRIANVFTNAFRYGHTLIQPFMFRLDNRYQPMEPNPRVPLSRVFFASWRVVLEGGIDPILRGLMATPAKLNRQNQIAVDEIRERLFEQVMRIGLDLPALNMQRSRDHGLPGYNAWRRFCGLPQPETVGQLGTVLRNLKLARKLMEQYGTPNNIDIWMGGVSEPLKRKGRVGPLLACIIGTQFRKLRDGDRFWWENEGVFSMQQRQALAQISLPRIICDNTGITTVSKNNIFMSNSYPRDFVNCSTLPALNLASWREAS

myeloperoxidase [2] = target: T1, myeloperoxidase; experiment: MPO Chlorination Assay (APF Assay); format: biochemical; details: potency range class, read-out: APF Assay IC50 value

IC50 (myeloperoxidase [1]) [nM]	IC50 (myeloperoxidase [2]) [nM]	Structure (SMILES)
101 to 999	101 to 999	Nc1cc(C(CCNCC2CCCCC2)c2ccccc2)c2nn[nH]c2n1 (stereo not shown) [Example 23, 7-{3-[(cyclohexylmethyl)amino]-1-phenylpropyl}-3H-[1,2,3]triazolo[4,5-b] pyridin-5-amine]
1000 to 10000	1 to 100	Nc1cc([C@H](CCCN2CCC3(CC2)NC(=O)Nc2ccccc23)c2ccccc2)c2nn[nH]c2n1 [Example 222, 1-[(4R)-4-{5-amino-3H-[1,2,3]triazolo [4,5-b]pyridin-7-yl}-4-phenylbutyl]-2′,3′-dihydro-1′H-spiro [piperidine-4,4′-quinazoline]-2′-one]
1 to 100	1 to 100	Nc1cc(C(Cc2ccccc2)c2ccccc2F)c2nn[nH]c2n1 (single isomer, unassigned) [Example 10, 7-(1-(2-fluorophenyl)-2-phenylethyl)-3H-[1,2,3]triazolo[4,5-b]pyridin-5-amine]
101 to 999	1 to 100	Nc1cc([C@H](CCNC2CC[C@H](c3ccccc3)[C@@H](O)C2)c2ccccc2)c2nn[nH]c2n1 (stereo partly drawn) [Example 184, (1S,2R)-5-{[(3R)-3-{5-amino-3H-[1,2,3]triazolo[4,5-b]pyridin-7-yl}-3-phenylpropyl]amino}-2-phenylcyclohexan-1-ol]
101 to 999	1 to 100	Nc1cc(C(CCNC2c3ccccc3CC2c2ccccc2)c2ccccc2)c2nn[nH]c2n1 (stereo not shown) [Example 56, 7-{1-phenyl-3-[(2-phenyl-2,3-dihydro-1H-inden-1-yl)amino]propyl}-3H-[1,2,3]triazolo[4,5-b] pyridin-5-amine]
1000 to 10000	101 to 999	Nc1cc(C(CCNCc2ccccc2OC(F)(F)F)c2ccccc2)c2nn[nH]c2n1 (stereo not shown) [Example 89, 7-[1-phenyl-3-({[2-(trifluoromethoxy)phenyl]methyl}amino)propyl]-3H-[1,2,3] triazolo[4,5-b] pyridin-5-amine]
1000 to 10000	1000 to 10000	Nc1cc(C(CCNC2(C(F)(F)F)CCC(c3ccccc3)CC2)c2ccccc2)c2nn[nH]c2n1 (stereo not shown) [Example 151, 7-(1-phenyl-3-{[4-phenyl-1-(trifluoromethyl)cyclohexyl]amino}propyl)-3H-[1,2,3]triazolo[4,5-b] pyridin-5-amine]
1000 to 10000	1000 to 10000	Nc1cc(C(CCCN2CC(c3ccc(F)cc3)c3ccccc32)c2ccccc2)c2nn[nH]c2n1 (stereo not shown) [Example 205, 7-{4-[3-(4-fluorophenyl)-2,3-dihydro-1H-indol-1-yl]-1-phenylbutyl}-3H-[1,2,3]triazolo [4,5-b]pyridin-5-amine]
101 to 999	1 to 100	NC(=O)c1cccc(-c2cccc3[nH]c(C[C@H](c4ccccc4)c4cc(N)nc5[nH]nnc45)nc23)c1 [Example 245, (R)-3-(2-(2-(5-amino-3H-[1,2,3]triazolo [4,5-b]pyridin-7-yl)-2-phenylethyl)-1H-benzo[d]imidazol-4-yl)benzamide]
101 to 999	1 to 100	CN(C)C(=O)c1cccc(-c2cccc3[nH]c(C[C@H](c4ccccc4)c4cc(N)nc5[nH]nnc45)nc23)c1 [Example 243, (R)-3-(2-(2-(5-amino-3H-[1,2,3]triazolo [4,5-b]pyridin-7-yl)-2-phenylethyl)-1H-benzo[d]imidazol-4-yl)-N,N-dimethylbenzamide]
101 to 999	101 to 999	CN(C)C(=O)c1cccc(CNCCC(c2ccccc2)c2cc(N)nc3[nH]nnc23)c1 (stereo not shown) [Example 72, 3-{[(3-{5-amino-3H-[1,2,3]triazolo[4,5-b]pyridin-7-yl}-3-phenylpropyl)amino]methyl}-N,N-dimethylbenzamide]
101 to 999	1 to 100	N#CC1(c2ccccc2)CCN(CCCC(c2ccccc2)c2cc(N)nc3[nH]nnc23)CC1 (stereo not shown) [Example 211, 1-(4-{5-amino-3H-[1,2,3]triazolo [4,5-b]pyridin-7-yl}-4-phenylbutyl)-4-phenylpiperidine-4-carbonitrile]
101 to 999	101 to 999	Nc1cc(C(Cc2ccccc2F)c2ccccc2)c2nn[nH]c2n1 (single isomer, unassigned) [Example 9, 7-(2-(2-fluorophenyl)-1-phenylethyl)-3H-[1,2,3]triazolo[4,5-b]pyridin-5-amine]
101 to 999	101 to 999	Nc1cc([C@H](CCCN2CCC3(CC2)NC(=O)Cc2ccccc23)c2ccccc2)c2nn[nH]c2n1 [Example 217, 1′-[(4R)-4-{5-amino-3H-[1,2,3]triazolo [4,5-b]pyridin-7-yl}-4-phenylbutyl]-3,4-dihydro-2H-spiro[isoquinoline-1,4′-piperidine]-3-one]
101 to 999	101 to 999	Nc1cc(C(Cc2ccccn2)c2ccccc2)c2nn[nH]c2n1 (stereo not shown) [Example 38, 7-(1-phenyl-2-(pyridin-2-yl)ethyl)-3H-[1,2,3]triazolo[4,5-b]pyridin-5-amine]
1000 to 10000	101 to 999	Nc1cc(C(CCN2CCC(c3ccccc3)CC2)c2ccccc2)c2nn[nH]c2n1 (stereo not shown) [Example 186, 7-[1-phenyl-3-(4-phenylpiperidin-1-yl)propyl]-3H-[1,2,3] triazolo[4,5-b] pyridin-5-amine]
1000 to 10000	1 to 100	Nc1cc([C@H](Cc2nc3c(-c4cccc(C5CC5)c4)cccc3[nH]2)c2ccccc2)c2nn[nH]c2n1 [Example 251, (R)-7-(2-(4-(3-cyclopropylphenyl)-1H-benzo[d]imidazol-2-yl)-1-phenylethyl)-3H-[1,2,3]triazolo [4,5-b]pyridin-5-amine]
101 to 999	1 to 100	Nc1cc([C@H](CCN(CC2CCCO2)C23CCC(c4ccccc4)(CC2)CC3)c2ccccc2)c2nn[nH]c2n1 (stereo partly drawn) [Example 195, 7-[(1R)-3-{[(oxolan-2-yl)methyl]({4-phenylbicyclo [2.2.2]octan-1-yl})amino}-1-phenylpropyl]-3H-[1,2,3]triazolo[4,5-b]pyridin-5-amine]
101 to 999	101 to 999	Nc1cc(C(CCOC2CCc3ccccc32)c2ccccc2)c2nn[nH]c2n1 (single isomer, unassigned) [Example 231, 7-(3-((2,3-dihydro-1H-inden-1-yl)oxy)-1-phenylpropyl)-3H-[1,2,3]triazolo[4,5-b]pyridin-5-amine]
1 to 100	1 to 100	Nc1cc([C@H](CCNC23CCC(c4ccccc4)(CC2)C(O)C3)c2ccccc2)c2nn[nH]c2n1 (stereo partly drawn) [Example 154, 4-{[(3R)-3-{5-amino-3H-[1,2,3]triazolo [4,5-b]pyridin-7-yl}-3-phenylpropyl]amino}-1-phenylbicyclo [2.2.2]octan-2-ol]
101 to 999	101 to 999	NC(=O)c1ccc(C2CCC(NCCC(c3ccccc3)c3cc(N)nc4[nH]nnc34)CC2)cc1 (stereo not shown) [Example 118, 4-{4-[(3-{5-amino-3H-[1,2,3]triazolo [4,5-b]pyridin-7-yl}-3-phenylpropyl)amino]cyclohexyl} benzamide]
1 to 100	101 to 999	CC(c1cccc(F)c1)c1cc(N)nc2[nH]nnc12 (racemic) [Example 30, 7-(1-(3-fluorophenyl)ethyl)-3H-[1,2,3]triazolo[4,5-b]pyridin-5-amine]
101 to 999	1 to 100	CN(CC[C@H](c1ccccc1)c1cc(N)nc2[nH]nnc12)[C@H]1CC[C@H](c2ccccc2)CC1 (stereo in doubt) [Example 178, 7-(3-(methyl(4-phenylcyclohexyl)amino)-1-phenylpropyl)-3H-[1,2,3]triazolo[4,5-b]pyridin-5-amine]

Source: patent US11008317B2, “Triazolopyridine inhibitors of myeloperoxidase and/or EPX” (priority 2016, dated 2021)
